Each block holds one molecule with its values, some of them ahead of it.
Key:
[1] = HPLC degradation products and mass balance of hydrocortisone formulation processed by TKC; assay type: physicochemical
Description: Pharmaceutical compositions of hydrocortisone were prepared by TKC, having an ejection temperature of approximately 160° C., and compared to the unprocessed drug substance to evaluate the formation of degradation products induced by processing.
Analytical testing of the hydrocortisone formulation processed by TKC was performed by HPLC using a Phenomenex C18 column and mobile phase of 65:35 methanol:water at a flow rate of 1 ml/min. Degradation products were identified and are described in terms of their retention time under this method.

[2] = neutral pH media; reference (42); cited from earlier work
[3] = DSC / modulated DSC glass transition analysis; assay type: physicochemical; settings: DSC/mDSC, 10° C./min
Description: Differential Scanning calorimetry (DSC). DSC analysis was conducted using a TA Instruments Model 2920 DSC (New Castle, Del.) equipped with a refrigerated cooling system. Samples were weighed to 15±5 mg in aluminum crimped pans (Kit 0219-0041, Perkin-Elmer Instruments, Norwalk, Conn.). For the KTZ dispersions in Methocel™ E50 and Kollidon® 30 the samples were heated at a ramp rate of 10° C./min from 5 to 215° C. with a modulation temperature amplitude of 0.5° C. and a modulation period of 40 seconds for all studies. For the IND and KTZ dispersions in […]® L 100-55 the samples were analyzed by conventional, non-modulated DSC at a ramp rate of 10° C./min from 5 to 200° C. Ultrahigh purity nitrogen was used as the purge gas at a flow rate of 40 mL/min. All data analyses were performed using TA Universal Analysis 2000 software. The thermogram for amorphous KTZ, used in the DSC analysis of the solid dispersions formulations of KTZ in Methocel™ E50 and Kollidon® 30 was obtained on a second heating of crystalline KTZ following an initial heating to 215° C. followed by rapid cooling (20° C./min) to 5° C. The thermograms of Methocel™ E50 and Kollidon® 30 were obtained by first run DSC following preheating of the polymer powders to 90° C. for 15 minutes in an MF-50 model moisture analyzer (AND Company Ltd. Encino, Calif.) to expel absorbed moisture.
Modulated Differential scanning calorimetry testing for the griseofulvin products was performed using a TA Instruments Model 2920 DSC (New Castle, Del.) and analyzed using TA Universal Analysis 2000 Software. Samples were accurately weighed to 15±2 mg in aluminum crimped pans. […]
Modulated Differential scanning calorimetry testing of itraconazole:HPMC E5 processed by TKC and by HME was performed using a TA Instruments Model 2920 DSC (New Castle, Del.) and analyzed using TA Universal Analysis 2000 Software. […]
The tested were conducted on a TA Instruments Model 2920 DSC (New Castle, Del.) and analyzed using TA Universal Analysis 2000 Software. […]

Impurity - 3.2 ([1]; HPLC retention time 3.2): 0.20% | Impurity - 3.9 ([1]; HPLC retention time 3.9): 0.26% | Impurity - 4.9 ([1]; HPLC retention time 4.9): 0.20% | Impurity - 5.5 ([1]; HPLC retention time 5.5): 0.62% | Impurity - 8.7 ([1]; HPLC retention time 8.7): 0.13%
SMILES: C[C@]12CCC(=O)C=C1CC[C@@H]1[C@@H]2[C@@H](O)C[C@@]2(C)[C@H]1CC[C@]2(O)C(=O)CO [Hydrocortisone, USP, Hydrocortisone]

SMILES: CC(=O)N1CCN(c2ccc(OCC3COC(Cn4ccnc4)(c4ccc(Cl)cc4Cl)O3)cc2)CC1 (stereo not drawn) [KTZ, ketoconazole]
equilibrium (saturation) solubility [2]: 5.98 µg/mL

SMILES: CC(=O)N1CCN(c2ccc(OCC3COC(Cn4ccnc4)(c4ccc(Cl)cc4Cl)O3)cc2)CC1 (stereo not drawn) [amorphous KTZ, ketoconazole]
glass transition temperature (Tg) [3]: 45 °C | glass transition temperature (Tg) ([3]; listed as Amorphous KTZ): approximately 45 °C

glass transition temperature (Tg) [3]: 90 °C
SMILES: COC1=CC(=O)C[C@@H](C)[C@]12Oc1c(Cl)c(OC)cc(OC)c1C2=O [amorphous griseofulvin, griseofulvin]

From patent publication US11439650B2, “Thermo-kinetic mixing for pharmaceutical applications” (BOARD OF REGENTS, THE UNIVERSITY OF TEXAS SYSTEM, priority 2007, dated 2022)
